Data: article PMC6214026, “PSMA-Oriented Target Delivery of Novel Anticancer Prodrugs: Design, Synthesis, and Biological Evaluations of Oligopeptide-Camptothecin Conjugates” (International Journal of Molecular Sciences, 2018)
In brackets after ≈: the same amount, converted by molar mass. Read-outs that look alike come from different tables or passages of the source.

Legend:
[1] = test system: DU145 cells (non-PSMA-expressing); assay: cells; assay type: cell-based, human; settings: read-out: IC50 DU145
Description: (§1) The cytotoxicities of PSMA-activated prodrug CPT-HT-J-ZLn and PSMA hydrolysate CPT-D-GLn were evaluated by MTT assays on PSMA-expressing (PSMA^+) cancer cell LNCaP-FGC, non-PSMA-expressing (PSMA^−) cancer cells HepG2, MCF-7, Hela, DU145, and PC-3, and normal cells MDCK, LO2, respectively, using CPT as a positive control.
(§2) The human prostate cancer cell line (LNCaP-FGC), human prostate cancer cell line (PC-3), human prostate cancer cell line (DU-145), human breast cancer cell line (MCF-7), human hepatocellular carcinoma cell line (HepG2), human cervical cancer cell line (Hela), were obtained from the Chinese Academy of Medical Sciences and Peking Union Medical College. The cultures of the cells were maintained as a monolayer in RPMI 1640 or DMEM supplemented with 10% (v/v) heat inactivated fetal bovine serum and 1% (v/v) enicillin/streptomycin (Corning, New York, NY, USA) and incubated at 37 °C in a humidified atmosphere with 5% CO2. The tested compounds were dissolved in DMSO (Sigma, St. Louis, MO, USA) and added at required concentrations to the cell culture.
(§3) The cytotoxicity of all the tested compounds was evaluated in vitro via the MTT method against PSMA-expressing LNCaP-FGC cells and non-PSMA-expressing cells HepG2, Hela, MCF-7, DU145, PC-3 cells using CPT as the positive control. Tumor cells growing in the logarithmic phase were seeded in 96-well plates at a density 3 × 10^3 cells/well and incubated overnight. The following day, cells were then treated with serial dilutions of the tested compounds for 72 h. At the end of this incubation, 20 µL of 5 mg/mL methylthiazol tetrazolium (MTT) was added to each well and incubation proceeded at 37 °C for another 4 h. After the supernatant medium was thrown away, 150 µL dimethylsulphoxide (DMSO) were added to each well and absorbance was measured at 490 nm using a plate reader (BIORAD 550 spectrophotometer, Bio-rad Life Science Development Ltd., Berkeley, CA, USA). Experiments were performed in triplicate and the values were the average of three (n = 3) independent experiments. The concentration of the compound that results in 50% growth inhibition corresponds to the IC50. Tumor cell growth inhibitory rate was calculated using Equation (1): % inhibition = (1 − Sample group OD/Control group OD) × 100%(1)

[2] = test system: HepG2 cells (non-PSMA-expressing); assay: cells; assay type: cell-based, human; settings: read-out: IC50 HepG2
Description: as §1, §2, §3

[3] = test system: MCF-7 cells (non-PSMA-expressing); assay: cells; assay type: cell-based, human; settings: read-out: IC50 MCF-7
Description: as §1, §2, §3

[4] = test system: PC-3 cells (non-PSMA-expressing); assay: cells; assay type: cell-based, human; settings: read-out: IC50 PC-3
Description: as §1, §2, §3

[5] = test system: LNCaP-FGC cells (PSMA-expressing); assay: MTT cytotoxicity assay, LNCaP-FGC; assay type: cell-based, human; settings: 72 h, read-out: IC50 LNCaP-FGC
Description: as §1, §2, §3

[6] = test system: HeLa cells (non-PSMA-expressing); assay: MTT cytotoxicity assay, HeLa; assay type: cell-based, human; settings: 72 h, mean ± SD, n = 3
Description: as §1
The tested compounds were dissolved in DMSO (Sigma, St. Louis, MO, USA) and added at required concentrations to the cell culture.
as §3, with “experiments.” for “experiments. The concentration of the compound that results in 50% growth inhibition corresponds to the IC50. Tumor cell growth inhibitory rate was calculated using Equation (1): % inhibition = (1 − Sample group OD/Control group OD) × 100%(1)”

LO2 cells = assay: cells; assay type: cell-based; settings: read-out: IC50 LO2
Description: as §1, §3

MDCK cells = assay: cells; assay type: cell-based; settings: 72 h, read-out: IC50 MDCK
Description: as §1, §3

[7] = Aqueous (equilibrium) solubility study in PBS; assay type: physicochemical; settings: pH = 7.4, 37 °C
Description: The equilibrium solubility of CPT and CPT-HT-J-ZL12 was determined in triplicate in PBS, according to the reference method with some modifications. An excess amount (~5 mg) of the tested compounds were placed into tubes, and 1 mL PBS was added to the tube. Then the tubes were incubated at 37 °C for 24 h in an ermostated oscillator (HZQ-QX, Harbin Donglian Instrument Co., Ltd., Harbin, China). After incubation, samples (0.1 mL) were removed and centrifuged at 10,000× g for 10 min with high speed centrifuge (Sorvall™ Legend™ Micro 21, Thermo Fisher Scientific, Waltham, MA, USA). […] of the supernatant was diluted, and the concentration was measured with HPLC according the method below. CPT and CPT-HT-J-ZL12 were measured by HPLC systems configured with a Waters 2695 separation module and a Waters 2695 ultraviolet (UV) detector with the following conditions: Xbridge C18 column (250 mm × 4.6 mm, […]); temperature, 25 °C; elution flow rate, 1.0 mL/min; detection wavelength, 365 nm. mobile phase, 0.2% […] in water (A) and 0.2% formic acid in acetonitrile (B) using a gradient elution of 10–60% B at 0–5.0 min, 60–80% B at 5.0–15.0 min, 80% B at 15.0–17.0 min, and 10% B at 17.1–23.0 min.

Structure (SMILES) | IC50 ([1]; Homo sapiens, DU-145, 72 h) | IC50 ([2]; Homo sapiens, HepG2, 72 h) | IC50 ([3]; Homo sapiens, MCF7, 72 h) | IC50 ([4]; Homo sapiens, PC-3, 72 h) | IC50 ([5]; Homo sapiens) | IC50 ([6]; Homo sapiens, HeLa) | IC50 (LO2 cells; Homo sapiens, L02, 72 h) | IC50 (MDCK cells; Canis lupus familiaris, MDCK) | other results
CC[C@@]1(OC(=O)CCCCCCCCCCCNC(=O)[C@H](CCC(=O)N[C@@H](CCC(=O)N[C@@H](CCC(=O)N[C@@H](CC(=O)OC(C)(C)C)C(=O)N[C@@H](CCC(=O)OC(C)(C)C)C(=O)OC(C)(C)C)C(=O)OC(C)(C)C)C(=O)OC(C)(C)C)NC(=O)OC(C)(C)C)C(=O)OCc2c1cc1n(c2=O)Cc2cc3ccccc3nc2-1 [CPT-HT-J-L12, 1,11,16,3-tetra-tert-butyl 34-((S)-4-ethyl-3,14-dioxo-3,4,12,14-tetrahydro-1H-pyrano[3′,4′:6,7]indolizino[1,2-b]quinolin-4-yl) (3S,6S,11S,16S,21S)-6-(2-(tert-butoxy)-2-oxoethyl)-21-((tert-butoxycarbonyl)amino)-5,8,13,18,22-pentaoxo-4,7,12,17,23-pentaazatetratriacontane-1,3,11,16,34-pentacarboxylate] | – | – | – | – | – | – | – | – | IC50 ([1]; MTT, 72 h, mean ± SD, n = 3): > 40 µM; IC50 ([2]; MTT, 72 h, mean ± SD, n = 3): > 40 µM; IC50 ([3]; MTT, 72 h, mean ± SD, n = 3): > 40 µM; IC50 ([4]; MTT, 72 h, mean ± SD, n = 3): > 40 µM; IC50 ([5]; MTT, mean ± SD, n = 3, PSMA+): > 40 µM; IC50 [6]: > 40 µM; IC50 (LO2 cells; MTT, 72 h, normal cells): > 40 µM; IC50 (MDCK cells; MTT, normal cells): > 40 µM
CC[C@@]1(O)C(=O)OCc2c1cc1n(c2=O)Cc2cc3ccccc3nc2-1 [CPT, Camptothecin] | – | – | – | – | – | – | – | – | IC50 ([1]; Homo sapiens, DU-145, MTT, 72 h, mean ± SD, n = 3): 0.21 ± 0.09 µM; IC50 ([2]; Homo sapiens, HepG2, MTT, 72 h, mean ± SD, n = 3): 5.43 ± 0.81 µM; IC50 ([3]; Homo sapiens, MCF7, MTT, 72 h, mean ± SD, n = 3): 0.16 ± 0.1 µM; IC50 ([4]; Homo sapiens, PC-3, MTT, 72 h, mean ± SD, n = 3): 0.13 ± 0.09 µM; IC50 ([5]; Homo sapiens, MTT, mean ± SD, n = 3, PSMA+): 0.18 ± 0.17 µM; IC50 (LO2 cells; Homo sapiens, L02, MTT, 72 h, normal cells): 0.04 ± 0.01 µM; IC50 (MDCK cells; Canis lupus familiaris, MDCK, MTT, normal cells): 0.02 ± 0.01 µM; solubility at 24 h [7]: 3 µg/mL (≈ 8.61 µM)
CC[C@@]1(OC(=O)CCCCCNC(=O)[C@@H](N)CCC(=O)O)C(=O)OCc2c1cc1n(c2=O)Cc2cc3ccccc3nc2-1 [CPT-D-GL6, (S)-4-amino-5-((6-(((S)-4-ethyl-3,14-dioxo-3,4,12,14-tetrahydro-1H-pyrano[3′,4′:6,7]indolizino[1,2-b]quinolin-4-yl)oxy)-6-oxohexyl)amino)-5-oxopentanoic acid] | 3.97 ± 0.16 µM | > 40 µM | 17.2 ± 3 µM | 12.5 ± 0.8 µM | 8.17 ± 1 µM | > 40 µM | 1.5 ± 0.6 µM | 4 ± 0.42 µM | –
CC[C@@]1(OC(=O)CCCCCNC(=O)[C@@H](N)CCC(=O)N[C@@H](CCC(=O)N[C@@H](CCC(=O)N[C@@H](CC(=O)O)C(=O)N[C@@H](CCC(=O)O)C(=O)O)C(=O)O)C(=O)O)C(=O)OCc2c1cc1n(c2=O)Cc2cc3ccccc3nc2-1 [CPT-HT-J-ZL6, (3S,6S,11S,16S,21S)-21-amino-6-(carboxymethyl)-29-(((S)-4-ethyl-3,14-dioxo-3,4,12,14-tetrahydro-1H-pyrano[3′,4′:6,7]indolizino[1,2-b]quinolin-4-yl)oxy)-5,8,13,18,22,29-hexaoxo-4,7,12,17,23-pentaazanonacosane-1,3,11,16-tetracarboxylic acid] | – | – | – | – | – | – | – | – | IC50 ([1]; MTT, 72 h, mean ± SD, n = 3): 26.3 ± 1.81 µM; IC50 ([2]; MTT, 72 h, mean ± SD, n = 3): > 40 µM; IC50 ([3]; MTT, 72 h, mean ± SD, n = 3): 7.03 ± 3.76 µM; IC50 ([4]; MTT, 72 h, mean ± SD, n = 3): 40 ± 3.37 µM; IC50 ([5]; MTT, mean ± SD, n = 3, PSMA+): 3.13 ± 0.4 µM; IC50 [6]: > 40 µM; IC50 (LO2 cells; MTT, 72 h, normal cells): > 40 µM; IC50 (MDCK cells; MTT, normal cells): 19 ± 3.6 µM
CC[C@@]1(OC(=O)CCCN)C(=O)OCc2c1cc1n(c2=O)Cc2cc3ccccc3nc2-1 [CPT-B-L4, (S)-4-ethyl-3,14-dioxo-3,4,12,14-tetrahydro-1H-pyrano[3′,4′:6,7]indolizino[1,2-b]quinolin-4-yl 4-aminobutanoate] | 0.25 ± 0.13 µM | > 40 µM | 1.58 ± 2.42 µM | 1 ± 0.1 µM | 0.37 ± 0.02 µM | 4.37 ± 0.5 µM | 1.36 ± 0.3 µM | 3.2 ± 2 µM | –
CC[C@@]1(OC(=O)CCCNC(=O)[C@@H](N)CCC(=O)O)C(=O)OCc2c1cc1n(c2=O)Cc2cc3ccccc3nc2-1 [CPT-D-GL4, (S)-4-amino-5-((4-(((S)-4-ethyl-3,14-dioxo-3,4,12,14-tetrahydro-1H-pyrano[3′,4′:6,7]indolizino[1,2-b]quinolin-4-yl)oxy)-4-oxobutyl)amino)-5-oxopentanoic acid] | 4.89 ± 0.01 µM | > 40 µM | 4.03 ± 0.3 µM | 14.9 ± 1 µM | 3.68 ± 0.5 µM | > 40 µM | 0.4 ± 0.15 µM | 0.23 ± 0.1 µM | –
CC[C@@]1(OC(=O)CCCCCN)C(=O)OCc2c1cc1n(c2=O)Cc2cc3ccccc3nc2-1 [CPT-B-L6, (S)-4-ethyl-3,14-dioxo-3,4,12,14-tetrahydro-1H-pyrano[3′,4′:6,7]indolizino[1,2-b]quinolin-4-yl 6-aminohexanoate] | 3.55 ± 0.95 µM | > 40 µM | 6.76 ± 1.47 µM | 15.9 ± 1.73 µM | 1.89 ± 0.2 µM | 15 ± 0.8 µM | 2.71 ± 0.38 µM | 5.44 ± 3 µM | –
CC[C@@]1(OC(=O)CN)C(=O)OCc2c1cc1n(c2=O)Cc2cc3ccccc3nc2-1 [CPT-B-L2, (S)-4-ethyl-3,14-dioxo-3,4,12,14-tetrahydro-1H-pyrano[3′,4′:6,7]indolizino[1,2-b]quinolin-4-yl glycinate] | 0.12 ± 0.09 µM | > 40 µM | 4.11 ± 3.09 µM | 5.19 ± 0.3 µM | 0.38 ± 0.1 µM | 10 ± 2 µM | 5.61 ± 1.4 µM | 5.16 ± 1.2 µM | –
